Test results reported in PubChem BioAssay AID318 (DTP/NCI, 2004).
Several values for one entry are separate records, joined by “and”; a condition that tells them apart may be missing. Identical values can stand only once. Toxic doses and inconclusive results are not listed.

Tested on: BDF1 mice, P815 leukemia ip, survival T/C
Experiment: NCI In Vivo Anticancer Drug Screen. Data for tumor model P815 Mast Cell Leukemia (Ascitic) (intraperitoneal) in B6D2F1 (BDF1) mice
Conditions: endpoint: survival time, mean or median, higher = longer survival
Protocol: The antitumor activity of compounds was measured in mice bearing transplantable tumors. Survival or tumor size were measured and the results are expressed as the measurement made in the treated group (T) divided by the measurement made in the vehicle treated control group (C). The tumor model used in this assay is P815 Mast Cell Leukemia (Ascitic) (intraperitoneal) in B6D2F1 (BDF1) mice

[1] = dose: 16.0 mg/kg/injection, schedule: Q01DX010 (ip), vehicle: saline
[2] = dose: 32.0 mg/kg/injection, schedule: Q01DX010 (ip), vehicle: saline
[3] = dose: 64.0 mg/kg/injection, schedule: Q01DX010 (ip), vehicle: saline
[4] = dose: 250.0 mg/kg/injection, schedule: Q01DX010 (ip), vehicle: saline
[5] = dose: 5.0 mg/kg/injection, schedule: Q01DX010 (ip), vehicle: saline
[6] = dose: 10.0 mg/kg/injection, schedule: Q01DX010 (ip), vehicle: saline
[7] = dose: 20.0 mg/kg/injection, schedule: Q01DX010 (ip), vehicle: saline
[8] = dose: 40.0 mg/kg/injection, schedule: Q01DX010 (ip), vehicle: saline
[9] = dose: 45.0 mg/kg/injection, schedule: Q01DX010 (ip), vehicle: saline
[10] = dose: 100.0 mg/kg/injection, schedule: Q01DX015 (ip), vehicle: carboxymethylcellulose (CMC)
[11] = dose: 80.0 mg/kg/injection, schedule: Q01DX010 (ip), vehicle: saline

CC[C@]1(O)C[C@H]2CN(CCc3c([nH]c4ccccc34)[C@@](C(=O)OC)(c3cc4c(cc3OC)N(C=O)[C@H]3[C@@](O)(C(=O)OC)[C@H](OC(C)=O)[C@]5(CC)C=CCN6CC[C@]43[C@@H]65)C2)C1
T/C (dose: 0.09 mg/kg/injection, schedule: Q01DX015 (ip), vehicle: carboxymethylcellulose (CMC)): 185 % of control
T/C (dose: 0.13 mg/kg/injection, schedule: Q01DX015 (ip), vehicle: carboxymethylcellulose (CMC)): 183 % of control
T/C (dose: 0.2 mg/kg/injection, schedule: Q01DX015 (ip), vehicle: carboxymethylcellulose (CMC)): 213 % of control
T/C (dose: 0.2 mg/kg/injection, schedule: Q01DX015 (ip), vehicle: saline): 107 % of control
T/C (dose: 0.3 mg/kg/injection, schedule: Q01DX015 (ip), vehicle: carboxymethylcellulose (CMC)): 183 % of control
T/C (dose: 0.3 mg/kg/injection, schedule: Q01DX015 (ip), vehicle: saline): 95 % of control
T/C (dose: 0.45 mg/kg/injection, schedule: Q01DX015 (ip), vehicle: carboxymethylcellulose (CMC)): 102 % of control
T/C (dose: 0.8 mg/kg/injection, schedule: Q01DX001 (ip), vehicle: saline): 170 % of control
T/C (dose: 1.8 mg/kg/injection, schedule: Q01DX001 (ip), vehicle: saline): 153 % of control
T/C (dose: 4.3 mg/kg/injection, schedule: Q01DX001 (ip), vehicle: saline): 113 % of control
T/C (dose: 12.5 micrograms/kg/injection, schedule: Q01DX015 (ip), vehicle: carboxymethylcellulose (CMC)): 116 % of control
T/C (dose: 25.0 micrograms/kg/injection, schedule: Q01DX015 (ip), vehicle: carboxymethylcellulose (CMC)): 120 % of control
T/C (dose: 100.0 micrograms/kg/injection, schedule: Q01DX015 (ip), vehicle: carboxymethylcellulose (CMC)): 170 % of control
T/C (dose: 150.0 micrograms/kg/injection, schedule: Q01DX015 (ip), vehicle: saline): 158 % of control

CC(=O)OCC1OC(n2cnc3c(=S)nc(N)[nH]c32)C(OC(C)=O)C1OC(C)=O (stereo unspecified)
T/C (dose: 1.5 mg/kg/injection, schedule: Q01DX015 (ip), vehicle: other): 113 % of control
T/C (dose: 3.1 mg/kg/injection, schedule: Q01DX015 (ip), vehicle: other): 110 % of control
T/C (dose: 6.2 mg/kg/injection, schedule: Q01DX015 (ip), vehicle: other): 108 % of control
T/C (dose: 12.5 mg/kg/injection, schedule: Q01DX015 (ip), vehicle: other): 88 % of control

Cc1c(O)ccc(=O)n1O
T/C (dose: 49.0 mg/kg/injection, schedule: Q01DX015 (ip), vehicle: other): 95 % of control
T/C (dose: 73.0 mg/kg/injection, schedule: Q01DX015 (ip), vehicle: other): 113 % of control
T/C (dose: 110.0 mg/kg/injection, schedule: Q01DX015 (ip), vehicle: other): 105 % of control
T/C (dose: 165.0 mg/kg/injection, schedule: Q01DX015 (ip), vehicle: other): 100 % of control
T/C (dose: 247.0 mg/kg/injection, schedule: Q01DX015 (ip), vehicle: other): 95 % of control

Nc1cc(C(=O)Nc2ccc(C3=NCCN3)cc2)cc(C(=O)Nc2ccc(C3=NCCN3)cc2)c1
T/C [1]: 116 % of control
T/C [2]: 120 % of control
T/C [3]: 150 % of control

CC(=O)N(C)C
T/C (dose: 62.5 mg/kg/injection, schedule: Q01DX010 (ip), vehicle: saline): 91 % of control and 100 % of control
T/C (dose: 125.0 mg/kg/injection, schedule: Q01DX010 (ip), vehicle: saline): 100 % of control and 108 % of control
T/C [4]: 91 % of control
T/C (dose: 500.0 mg/kg/injection, schedule: Q01DX010 (ip), vehicle: saline): 95 % of control and 104 % of control

Oc1ccccc1C(Nc1nc2ccccc2s1)c1ccc2cccnc2c1O (stereo unspecified)
T/C (dose: 62.5 mg/kg/injection, schedule: Q01DX015 (ip), vehicle: other): 90 % of control
T/C (dose: 125.0 mg/kg/injection, schedule: Q01DX015 (ip), vehicle: other): 120 % of control
T/C (dose: 250.0 mg/kg/injection, schedule: Q01DX015 (ip), vehicle: other): 98 % of control

N=C(N)SCc1c2ccccc2c(CSC(=N)N)c2ccccc12
T/C [5]: 162 % of control
T/C [6]: 175 % of control and 200 % of control
T/C [7]: 150 % of control
T/C [8]: 150 % of control

C(CC1CO1)C1CO1 (stereo unspecified)
T/C (dose: 40.0 mg/kg/injection, schedule: Q01DX015 (ip), vehicle: saline): 150 % of control
T/C (dose: 60.0 mg/kg/injection, schedule: Q01DX015 (ip), vehicle: saline): 172 % of control

CNc1nc(Nc2ccc(C3=NCCN3)cc2)nc(Nc2ccc(C3=NCCN3)cc2)n1
T/C (dose: 13.3 mg/kg/injection, schedule: Q01DX010 (ip), vehicle: saline): 108 % of control
T/C [7]: 108 % of control
T/C (dose: 30.0 mg/kg/injection, schedule: Q01DX010 (ip), vehicle: saline): 108 % of control
T/C [9]: 116 % of control

COc1cc(-c2ccc(Nc3ccccc3C(=O)O)c(OC)c2)ccc1Nc1ccccc1C(=O)O
T/C [9]: 108 % of control
T/C (dose: 67.0 mg/kg/injection, schedule: Q01DX010 (ip), vehicle: saline): 120 % of control

CN(Cc1cnc2nc(N)nc(N)c2n1)c1c(Cl)cc(C(=O)NC(CCC(=O)O)C(=O)O)cc1Cl (stereo unspecified)
T/C (dose: 5.0 mg/kg/injection, schedule: Q01DX015 (ip), vehicle: carboxymethylcellulose (CMC)): 150 % of control
T/C (dose: 10.0 mg/kg/injection, schedule: Q01DX015 (ip), vehicle: carboxymethylcellulose (CMC)): 164 % of control
T/C (dose: 13.2 mg/kg/injection, schedule: Q01DX015 (ip), vehicle: carboxymethylcellulose (CMC)): 166 % of control
T/C (dose: 20.0 mg/kg/injection, schedule: Q01DX015 (ip), vehicle: carboxymethylcellulose (CMC)): 164 % of control
T/C (dose: 25.0 mg/kg/injection, schedule: Q01DX015 (ip), vehicle: carboxymethylcellulose (CMC)): 190 % of control
T/C (dose: 30.0 mg/kg/injection, schedule: Q01DX015 (ip), vehicle: carboxymethylcellulose (CMC)): 181 % of control
T/C (dose: 45.0 mg/kg/injection, schedule: Q01DX015 (ip), vehicle: carboxymethylcellulose (CMC)): 179 % of control
T/C (dose: 67.5 mg/kg/injection, schedule: Q01DX015 (ip), vehicle: carboxymethylcellulose (CMC)): 164 % of control
T/C [10]: 121 % of control

CC(=O)OCC1OC(n2cnc3c(=S)nc[nH]c32)C(OC(C)=O)C1OC(C)=O (stereo unspecified)
T/C (dose: 50.0 mg/kg/injection, schedule: Q01DX015 (ip), vehicle: carboxymethylcellulose (CMC)): 162 % of control
T/C [10]: 100 % of control

Cn1c(N)nc2nc[nH]c2c1=S
T/C [6]: 106 % of control
T/C [7]: 100 % of control and 111 % of control
T/C [8]: 100 % of control
T/C (dose: 160.0 mg/kg/injection, schedule: Q01DX010 (ip), vehicle: saline): 100 % of control

COc1ccc(CSc2ncnc3nc[nH]c23)cc1
T/C (dose: 62.5 mg/kg/injection, schedule: Q01DX015 (ip), vehicle: carboxymethylcellulose (CMC)): 91 % of control

O=C(Nc1ccc(C2=NCCN2)cc1)c1ccc(C(=O)Nc2ccc(C3=NCCN3)cc2)cc1
T/C (dose: 75.0 mg/kg/injection, schedule: Q01DX010 (ip), vehicle: saline): 158 % of control
T/C (dose: 112.0 mg/kg/injection, schedule: Q01DX010 (ip), vehicle: saline): 175 % of control
T/C (dose: 167.0 mg/kg/injection, schedule: Q01DX010 (ip), vehicle: saline): 175 % of control
T/C [4]: 108 % of control

CC1CCOS(=O)O1 (stereo unspecified)
T/C [6]: 100 % of control
T/C [7]: 100 % of control
T/C [8]: 100 % of control
T/C [11]: 88 % of control

O=C(Nc1cccc(C(=O)Nc2ccc(C3=NCCN3)cc2)c1)c1ccc(C2=NCCN2)cc1
T/C (dose: 54.0 mg/kg/injection, schedule: Q01DX010 (ip), vehicle: saline): 112 % of control

Nc1nc(SCc2ccccc2)c2[nH]cnc2n1
T/C (dose: 8.0 mg/kg/injection, schedule: Q01DX010 (ip), vehicle: saline): 100 % of control and 105 % of control
T/C [1]: 100 % of control and 111 % of control
T/C [3]: 100 % of control and 122 % of control

CCOC(=O)c1c[nH]c2ccc(N(CCCl)CCCl)cc12
T/C [5]: 100 % of control
T/C [6]: 100 % of control
T/C [7]: 100 % of control
T/C [8]: 105 % of control
T/C [11]: 112 % of control

CCCCOP(=S)(N1CC1)N1CC1
T/C (dose: 4.0 mg/kg/injection, schedule: Q01DX010 (ip), vehicle: saline): 120 % of control and 122 % of control
T/C [1]: 90 % of control and 122 % of control
T/C [2]: 90 % of control
